Tests used:
HT-29 = assay: in vivo anti-tumor efficacy, colorectal xenograft model HT-29
GS-9L = assay: in vivo anti-tumor efficacy, glioblastoma GS-9L syngeneic rat tumor model; settings: 50 mg/kg/d
FaDu = assay: in vivo anti-tumor efficacy, head and neck xenograft model FaDu; settings: 100 mg/kg/d
NCI-H460 = assay: in vivo anti-tumor efficacy, non-small-cell lung xenograft model NCI-H460; settings: NCI-H460, 25 mg/kg/d
Calu-6 = assay: in vivo anti-tumor efficacy, non-small-cell lung xenograft model Calu-6; settings: Calu-6, 50 mg/kg/d
SKOV3 = assay: in vivo anti-tumor efficacy, ovarian xenograft model SKOV3; settings: SKOV3, 50 mg/kg/d
PAC-120 = assay: in vivo anti-tumor efficacy, hormone-dependent prostate xenograft model PAC-120; settings: PAC-120, 100 mg/kg/d
Caki-1 = assay: in vivo anti-tumor efficacy, renal xenograft model Caki-1; settings: Caki-1, 100 mg/kg/d
Rip-Tag = assay: in vivo anti-tumor efficacy, pancreas murine transgenic model Rip-Tag
[1] = tested on: metastatic colorectal cancer; assay: phase I/II study of the combination of Compound A1 with Compound Mixture B1 (UMIN000017114); type: in vivo, patients
Description: The key eligibility criteria were patients with metastatic colorectal cancer refractory or intolerant to fluoropyrimidine, irinotecan, oxaliplatin, anti-angiogenesis inhibitor and anti-EGFR antibody (if wild-type RAS) and without prior regorafenib and Compound Mixture B1 treatment; at least one measurable lesion; and ECOG performance status of 0 or 1.
Secondary endpoints included overall survival (OS), PFS, objective response rate, disease control rate, safety, and pharmacokinetic parameters.
Key Inclusion Criteria: • 1) Written informed consent • 2) >=20 years old • 3) Histologically or cytologically proven adenocarcinoma of colon or rectum (except appendiceal cancer), and KRAS test were carried out. • 4) Prior chemotherapy was discontinued due to disease progression, or an adverse event. • 5) No prior treatment with Regorafenib • 6) ECOG Performance Status of 0 or 1 • 7) Adequate oral intake • 8) With measurable disease according to RECIST • 9) Adequate organ function within 14 days prior to enrollment. • a. Hemoglobin>=9.0 g/d • b. Absolute neutrophil count>=1,500/mm3 • c. Platelet count>=100,000/mm3 • d with no liver metastasis, AST/ALT<=ULNx1.5 and T-Bil<=UNL with liver metastasis, AST/ALT<=ULNx2.5 and T-Bil<=UNL • e Serum creatinine<=1.5 mg/dL • 10) Women of childbearing potential must have a negative pregnancy test within 7 days prior to enrollment. […]

## COC(=O)c1ccc2c(c1)NC(=O)/C2=C(\Nc1ccc(N(C)C(=O)CN2CCN(C)CC2)cc1)c1ccccc1 [Compound A, 3-Z-[1-(4-(N-((4-methyl-piperazin-1-yl)-methylcarbonyl)-N-methyl-amino)-anilino)-1-phenyl-methylene]-6-methoxycarbonyl-2-indolinone]
HT-29; HT-29 colorectal model, 100 mg/kg/d, T/C = reduction of tumor size in % of the control
  Efficacy T/C: T/C 16% @ 100 mg/kg/d
HT-29; HT-29 large tumors
  Efficacy: tumor volume reduction
GS-9L
  Efficacy T/C: T/C 32% @ 50 mg/kg/d
FaDu
  Efficacy T/C: T/C 11% @ 100 mg/kg/d
NCI-H460
  Efficacy T/C: T/C 54% @ 25 mg/kg/d
Calu-6
  Efficacy T/C: T/C 24% @ 50 mg/kg/d
SKOV3
  Efficacy T/C: T/C 19% @ 50 mg/kg/d
PAC-120
  Efficacy T/C: T/C 34% @ 100 mg/kg/d
Caki-1
  Efficacy T/C: T/C 13% @ 100 mg/kg/d
Rip-Tag
  Efficacy: interference with tumor
[1]; All enrolled patients, N = 35
  Two dose reduction of nintedanib, Reason: DILI (cycle 1, cycle 4)
[1]; all enrolled 35 patients, combination treatment
  patients requiring at least one dose reduction of nintedanib: Five
